Experimental data published in patent US7776863B2, “Methods of treating HIV infection” (priority 2004, dated 2010).

Tested on: HIV-1 LAI
Test: microbe, parasite or virus in culture
Settings: for Combination Indices at % HIV Inhibition (Confidence Interval) 50% / Combination Indices at % HIV Inhibition (Confidence Interval) 75% / Combination Indices at % HIV Inhibition (Confidence Interval) 90%: 95% confidence interval in parentheses; for EC50: Human immunodeficiency virus 1, MT2, 120 h; for Overall Result (combined anti-HIV effect): all ratios, MT-2 cells, HIV-1 LAI
Procedure: Virus and cell lines. The T-cell lines, MT-2 and PM-1 were obtained through the AIDS Research and Reference Reagent Program, NIAID, and were contributed by Dr. D. Richman and Dr. R. Gallo, respectively. Both cell lines were cultured in RPMI 1640 medium supplemented with 10% fetal bovine serum, 2 mM L-glutamine and sub-cultured twice a week. The LAI strain of HIV-1 was obtained from the Fred Hutchinson Cancer Research Center, and the Bal strain was from NIH. Both virus stocks were amplified and titered in MT-2 cells (LAI) and PM-1 cells (Bal) using a virus infectivity assay.
Drug Susceptibility and Cytotoxicity Assays. For drug susceptibility assays, MT-2 cells were infected with HIV-1 LAI (or PM-1 cells with HIV-1 Bal) at an MOI of 0.005, and seeded into 96-well microtiter plates (0.1×10^6 cells/ml) containing serial dilutions of test compounds. […] Each drug ratio consisted of an array of 3-fold serial dilutions, and was performed in quadruplicate. The plates were incubated at 37° C./5% CO2. The MT-2 cells infected with HIV-1 LAI were incubated for 5 days. On day-five post-infection, 20 μl from each well was harvested and quantitated by a reverse transcriptase (RT) assay, or in samples involving non-nucleoside RT inhibitors, an MTS assay. The PM-1 cells infected with HIV-1 Bal and used for studying the combinations with CCR5 inhibitors were incubated for six days. On day-six post-infection, 20 μl from each well was harvested, 20- and 50-fold diluted and quantitated by p24 assay. Cytotoxicity assays were performed using uninfected cells, exposed to the same drug combinations, and incubated for six days. Cell viability was determined by an MTS assay. The CC50 values were calculated by using the exponential form of the median effect equation as mentioned below for calculation of EC50.
Analysis of Drug Combination Effects. For determination of CI values, drugs were diluted in a fixed ratio and multiple ratios were analyzed. The drug serial dilutions spanned a range of concentrations near the EC50 value of each compound, so that equivalent antiviral activities could be compared. Concentration-response curves were estimated for each individual drug and every combination using the median-effect equation. The equation was fit using a nonlinear regression routine (Proc Nlin) in PC SAS version 8.01 (SAS Institute Inc., SAS Version 8.01, Cary, N.C.: SAS Institute Inc., 1990).
In this equation, Fa stands for “fraction affected,” and represents the fraction of the viral load that has been inactivated. […] ED50 is drug concentration that is expected to reduce the amount of virus by 50%, and m is a parameter that reflects the slope of the concentration-response curve.
To assess antiviral effects of different drug combination treatments, combination indices (CIs) were calculated according to Chou and Rideout. The combination index was computed as CI=[D]1/[Dm]1+[D]2/[Dm]2
In this equation [Dm]1 and [Dm]2 are the concentrations of drugs that would individually produce a specific level of effect, while [D]1 and [D]2 are the concentrations of drugs in combination that would produce the same level of effect.
Theoretically, additivity is implied if the CI is equal to one, synergy if the CI is less than one, and antagonism if the CI is greater than one. […] At best, we can construct a range that contains the likely values for the CI, given the noise in the data. In this report, these ranges are reported in parentheses next to each point estimate of the CI. […] If the range fell entirely above 1.0, we would infer antagonistic behavior. If the range were to include 1.0, we would infer additivity.
In carrying out the combination experiments below, the EC50 for Compound 1 and each comparator compound was determined during the course of each study, and used in the subsequent data analysis.

[1] = Compound 1 + named drug, EC50 ratio 1:1 (Compound 1:comparator)
[2] = Compound 1 + named drug, EC50 ratio 1:2.5 (Compound 1:comparator)
[3] = Compound 1 + named drug, EC50 ratio 2.5:1 (Compound 1:comparator)

| SMILES | Combined effect at 90% inhibition level (Compound 1 + named drug) | Combined effect at the 50 and 75% inhibition levels (Compound 1 + named drug) | Combination Indices at % HIV Inhibition (Confidence Interval) 50% [1] | Combination Indices at % HIV Inhibition (Confidence Interval) 75% [1] | Combination Indices at % HIV Inhibition (Confidence Interval) 90% [1] | Combination Indices at % HIV Inhibition (Confidence Interval) 50% [2] | Combination Indices at % HIV Inhibition (Confidence Interval) 75% [2] | Combination Indices at % HIV Inhibition (Confidence Interval) 90% [2] | Combination Indices at % HIV Inhibition (Confidence Interval) 50% [3] | Combination Indices at % HIV Inhibition (Confidence Interval) 75% [3] | Combination Indices at % HIV Inhibition (Confidence Interval) 90% [3] | EC50 | Overall Result (combined anti-HIV effect) (Compound 1 + named drug) | Overall Result (combined anti-HIV effect) (Compound 1 + named drug, listed as delavirdine) | Overall Result (combined anti-HIV effect) (Compound 1 + named drug, listed as efavirenz) |
| --- | --- | --- | --- | --- | --- | --- | --- | --- | --- | --- | --- | --- | --- | --- | --- |
| c1cc(CN2CCCNCCNCCCNCC2)ccc1CN1CCCNCCNCCCNCC1 [AMD-3100] | tendency to additivity | strongly synergistic | 0.44 (0.29, 0.60) | 0.62 (0.31, 0.92) | 0.98 (0.21, 1.76) | 0.56 (0.42, 0.70) | 0.54 (0.35, 0.73) | 0.66 (0.29, 1.02) | 0.52 (0.36, 0.68) | 0.61 (0.35, 0.88) | 0.77 (0.24, 1.31) | 5 nM |  |  |  |
| Nc1nc(NC2CC2)c2ncn([C@H]3C=C[C@@H](CO)C3)c2n1 [Abacavir, abacavir] |  |  | 0.69 (0.49, 0.89) | 0.77 (0.46, 1.09) | 0.87 (0.30, 1.44) | 0.56 (0.45, 0.67) |  | 0.48 (0.27, 0.68) | 0.10 (0.05, 0.14) | 0.27 (0.16, 0.39) |  | 326 nM | Additive- |  |  |
| CC(C)CN(C[C@@H](O)[C@H](Cc1ccccc1)NC(=O)O[C@H]1CCOC1)S(=O)(=O)c1ccc(N)cc1 [Amprenavir, amprenavir] |  |  | 0.14 (0.11, 0.17) | 0.35 (0.26, 0.45) | 0.87 (0.46, 1.28) | 0.13 (0.09, 0.17) | 0.27 (0.17, 0.38) | 0.58 (0.19, 0.97) | 0.46 (0.32, 0.60) | 0.79 (0.46, 1.11) | 1.33 (0.42, 2.25) | 11 nM | Additive- |  |  |
| COC(=O)N[C@H](C(=O)N[C@@H](Cc1ccccc1)[C@@H](O)CN(Cc1ccc(-c2ccccn2)cc1)NC(=O)[C@@H](NC(=O)OC)C(C)(C)C)C(C)(C)C [Atazanavir, atazanavir] |  |  | 0.53 (0.46, 0.60) |  | 0.90 (0.64, 1.17) |  | 0.49 (0.29, 0.69) | 1.17 (0.38, 1.95) | 0.34 (0.26, 0.42) | 0.56 (0.38, 0.74) | 0.97 (0.46, 1.48) | 0.7 nM | Additive- |  |  |
| COc1cnc(-n2cnc(C)n2)c2[nH]cc(C(=O)C(=O)N3CCN(C(=O)c4ccccc4)CC3)c12 [Compound 1, 1-Benzoyl-4-[2-[4-methoxy-7-(3-methyl-1H-1,2,4-triazol-1-yl)-1H-pyrrolo[2,3-c]pyridin-3-yl]-1,2-dioxoethyl]-piperazine] |  |  |  |  |  |  |  |  |  |  |  | 0.1 to 0.3 nM |  |  |  |
| CC(C)Nc1cccnc1N1CCN(C(=O)c2cc3cc(NS(C)(=O)=O)ccc3[nH]2)CC1 [Delavirdine, delavirdine] |  |  | 0.90 (0.75, 1.06) | 0.49 (0.38, 0.61) | 0.28 (0.18, 0.39) | 0.57 (0.42, 0.71) | 0.55 (0.36, 0.75) | 0.57 (0.26, 0.89) | 0.64 (0.49, 0.78) | 0.46 (0.31, 0.60) | 0.34 (0.17, 0.50) | 25 nM | Synergistic | synergistic |  |
| O=c1[nH]cnc2c1ncn2[C@H]1CC[C@@H](CO)O1 [Didanosine, didanosine] |  |  | 0.31 (0.29, 0.32) | 0.16 (0.15, 0.17) | 0.08 (0.08, 0.09) | 0.27 (0.23, 0.31) | 0.31 (0.24, 0.38) | 0.35 (0.23, 0.48) | 0.15 (0.11, 0.19) | 0.31 (0.22, 0.40) | 0.65 (0.31, 0.98) | 652 nM | Synergistic |  |  |
| O=C1Nc2ccc(Cl)cc2[C@@](C#CC2CC2)(C(F)(F)F)O1 [Efavirenz, efavirenz] |  |  | 0.70 (0.50, 0.89) |  | 0.32 (0.13, 0.50) | 0.47 (0.28, 0.65) | 0.46 (0.21, 0.70) | 0.45 (0.06, 0.83) | 0.52 (0.36, 0.69) | 0.39 (0.21, 0.57) | 0.30 (0.08, 0.51) | 1 nM | Synergistic |  | synergistic |
| Nc1nc(=O)n([C@@H]2CS[C@H](CO)O2)cc1F [Emtricitabine, emtricitabine] |  |  | 0.42 (0.35, 0.50) | 0.49 (0.37, 0.61) |  | 0.19 (0.15, 0.22) | 0.35 (0.26, 0.44) | 0.67 (0.36, 0.99) | 0.11 (0.09, 0.12) | 0.26 (0.21, 0.31) | 0.67 (0.44, 0.89) | 25 nM | Synergistic |  |  |
